# Measured values as given in patent US7060677B1, “Antimicrobial activity of the first cationic cluster of human lactoferrin” (priority 1999, dated 2006).
# Peptide text beside a SMILES is read from it.
# What was measured:
# [1] = Pharmacology of 99mTc-labeled hLF and peptides by scintigraphy in infected mice
# Protocol: Lactoferrins and related peptides were labeled with ^99mTechnetium (^99mTc) as described (22, 23). Briefly, 10 μl of a peptide solution (1 mg/ml of HAc) was added to 2 μl of an aseptic solution of 0.5 mg of stannous pyrophosphate/ml (Dept. of Clinical Pharmacy and Toxicology. Leiden University Medical Center (LUMC). Leiden. The Netherlands). Immediately thereafter, 4 μl of a solution of 10 mg of KBH4 (crystalline. Sigma) per ml of 0.1 M NaOH was added. After addition of 0.1 ml of ^99mTc-sodium pertechnetate solution (200 MBq/ml. Mallinckrodt Medical BV, Petten, The Netherlands), the mixture was gently stirred at ambient temperature for 30 min and then was ready for use. Quality control of the labeling was performed by RP-HPLC analysis using a Sep-Pak C18 cartridge (Waters, Milford, Mass.) in 20 ml of 0.01 M HAc. After rinsing with 20 ml of 0.01 M HAc, proteins and peptides were eluted with 2 ml of methanol (Sigma).
# The mice were placed in supine position on a planar gamma camera (Toshiba GCA 7100/UI. Tokyo, Japan) with both hind legs spread out and fixed with surgical tape. Continuous whole body acquisitions of the mice of each 60 s during the first hour after injection of the tracer were made with the gamma camera, equipped with a low-energy general purpose parallel-hole collimator. […] The energy peak was set at 140 keV with a window of 20%.
# (§1) On the scintigrams, anatomically adjusted regions of interest (ROI) were drawn over the various organs and both thighs providing data about clearance of ^99mTc-peptides and accumulation at the site of infection. […] The amount of radioactivity in the heart was corrected for decay and expressed as a percentage of injected dose (% ID).
# [2] = tested on: the various bacteria (L. monocytogenes, antibiotic resistant S. aureus, K. pneumoniae, E. coli); experiment: Assay for antibacterial activity, statements on the various bacteria together; type: cell-based; conditions: FIGS. 2A–2D: 7 μM peptide, 1 h at 37° C., NaPB-TSB
# Protocol: Listeria monocytogenes strain EGD. Klebsiella pneumoniae (43816), and Escherichia coli O54 were purchased from the American Type Culture Collection (Rockville, Md.). Antibiotic resistant S. aureus, K. pneumoniae and E. coli were cultured overnight in nutrient broth (Oxoid, Basingstoke, UK) at 37° C., diluted in tryptase soya broth (TSB, Oxoid) and cultured for an additional 2 h in a shaking waterbath at 37° C. L. monocytogenes was cultured overnight in brain heart infusion broth (BHI, Oxoid) at 37° C. diluted and cultured for an additional 2 h in a shaking waterbath at 37° C.
# In short, bacteria were washed with phosphate-buffered saline (PBS) (pH 7.4) and diluted to a concentration of approximately 2×10^6 CFU/ml of phosphate-buffered saline (pH 6.0) supplemented with 0.1% (v/v) Tween-20 (hereafter designated as PBS-Tw). […] At various time intervals (range 0–4 h) after incubation at 37° C. the number of viable bacteria was determined microbiologically. As negative controls, bovine serum albumin (BSA; Sigma) or no peptide were included.
# bacterial infection = experiment: Imaging microbial infections with 99mTc-labeled hLF and peptides; conditions: as described in Example VI
# From the text: The mice were placed in supine position on a planar gamma camera (Toshiba GCA 7100/UI. Tokyo, Japan) with both hind legs spread out and fixed with surgical tape. Continuous whole body acquisitions of the mice of each 60 s during the first hour after injection of the tracer were made with the gamma camera, equipped with a low-energy general purpose parallel-hole collimator. The camera was connected to a computer (GMS 5500 UI, Toshiba) and high-resolution images of the animals were stored as a 256×256 matrix. The energy peak was set at 140 keV with a window of 20%.
# as §1
molecule,measurement,setting,value
CC(C)[C@H](NC(=O)[C@H](CO)NC(=O)[C@H](CCCNC(=N)N)NC(=O)[C@@H](N)CCCNC(=N)N)C(=O)N[C@@H](CCC(N)=O)C(=O)N[C@@H](Cc1c[nH]c2ccccc12)C(=O)N[C@@H](CS)C(=O)N[C@@H](C)C(=O)O [hLF(4–11)] (H-RRSVQWCA-OH; N-terminus and C-terminus assumed),mean t1/2 of removal from the circulation,"[1]; Swiss, mouse, in vivo",approximately 1 min
"hLF(5–11): synthetic fragment of hLF(1–11): residues 5–11 of hLF (SVQWCAV; UniProt P02788 24-30, looked up, fragment)",Bactericidal activity of synthetic peptides against the various bacteria (in words),[2],ineffective
"CSCC[C@H](NC(=O)[C@H](CC(N)=O)NC(=O)[C@H](CCCNC(=N)N)NC(=O)[C@H](CCC(N)=O)NC(=O)[C@H](Cc1c[nH]c2ccccc12)NC(=O)[C@H](CCC(N)=O)NC(=O)[C@@H](N)Cc1ccccc1)C(=O)N[C@@H](CCCNC(=N)N)C(=O)N[C@@H](CCCCN)C(=O)N[C@H](C(=O)N[C@@H](CCCNC(=N)N)C(=O)O)C(C)C [hLF(21–31), reference compound] (H-FQWQRNMRKVR-OH; N-terminus and C-terminus assumed)",mean t1/2 of removal from the circulation,"[1]; Swiss, mouse, in vivo",~2 min
CC(C)[C@H](NC(=O)[C@H](CO)NC(=O)[C@H](CCCNC(=N)N)NC(=O)[C@H](CCCNC(=N)N)NC(=O)[C@H](CCCNC(=N)N)NC(=O)[C@H](CCCNC(=N)N)NC(=O)CN)C(=O)N[C@@H](CCC(N)=O)C(=O)N[C@@H](Cc1c[nH]c2ccccc12)C(=O)N[C@@H](CS)C(=O)N[C@@H](C)C(=O)O [hLF(1–11)] (H-GRRRRSVQWCA-OH; N-terminus and C-terminus assumed),Accumulation at the site of infection (in words),bacterial infection,rapidly accumulate at the site of infection
same,mean t1/2 of removal from the circulation,"[1]; 99mTc-labeled, S. aureus infected mice, n=3, radioactivity over the heart in first hour",~9 min
"hLF(6–11): synthetic fragment of hLF(1–11): residues 6–11 of hLF (VQWCAV; UniProt P02788 25-30, looked up, fragment)",Bactericidal activity of synthetic peptides against the various bacteria (in words),[2],ineffective
CC(C)[C@H](NC(=O)[C@H](CO)NC(=O)[C@H](CCCNC(=N)N)NC(=O)[C@H](CCCNC(=N)N)NC(=O)[C@@H](N)CCCNC(=N)N)C(=O)N[C@@H](CCC(N)=O)C(=O)N[C@@H](Cc1c[nH]c2ccccc12)C(=O)N[C@@H](CS)C(=O)N[C@@H](C)C(=O)O [hLF(3–11)] (H-RRRSVQWCA-OH; N-terminus and C-terminus assumed),Accumulation at the site of infection (in words),bacterial infection,rapidly accumulate at the site of infection
CC(C)[C@H](NC(=O)[C@H](CO)NC(=O)[C@H](CCCNC(=N)N)NC(=O)[C@H](CCCNC(=N)N)NC(=O)[C@H](CCCNC(=N)N)NC(=O)[C@@H](N)CCCNC(=N)N)C(=O)N[C@@H](CCC(N)=O)C(=O)N[C@@H](Cc1c[nH]c2ccccc12)C(=O)N[C@@H](CS)C(=O)N[C@@H](C)C(=O)O [hLF(2–11)] (H-RRRRSVQWCA-OH; N-terminus and C-terminus assumed),Accumulation at the site of infection (in words),bacterial infection,rapidly accumulate at the site of infection
